pIC50: −log10 of the molar value.
target: human NaV 1.8 (Homo sapiens, UniProt Q9Y5Y9); experiment: E-VIPR assay detecting and measuring NaV inhibition properties; format: cell-based; conditions: HEK cells expressing truncated human NaV 1.8; no human serum; read-out: IC50 in the E-VIPR Assay
How it was run: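 Membrane potential was followed by coumarin/oxonol FRET during electrical field stimulation of matrigel-seeded HEK cells carrying truncated human NaV1.8 plus KIR2.1. Dosing used 11 points, 3-fold steps, top 300 nM final, 0.625% DMSO, with or without 25% human serum.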

human NaV 1.8, sequence (Q9Y5Y9 126-399 limits assumed): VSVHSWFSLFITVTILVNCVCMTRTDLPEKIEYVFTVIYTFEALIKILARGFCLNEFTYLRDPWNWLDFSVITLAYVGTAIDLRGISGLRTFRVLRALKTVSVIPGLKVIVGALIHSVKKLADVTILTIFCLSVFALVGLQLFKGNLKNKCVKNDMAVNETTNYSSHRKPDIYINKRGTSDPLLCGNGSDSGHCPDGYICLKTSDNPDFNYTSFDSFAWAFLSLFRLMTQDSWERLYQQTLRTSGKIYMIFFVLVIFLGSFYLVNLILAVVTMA
human NaV 1.8, sequence (Q9Y5Y9 660-890 limits assumed): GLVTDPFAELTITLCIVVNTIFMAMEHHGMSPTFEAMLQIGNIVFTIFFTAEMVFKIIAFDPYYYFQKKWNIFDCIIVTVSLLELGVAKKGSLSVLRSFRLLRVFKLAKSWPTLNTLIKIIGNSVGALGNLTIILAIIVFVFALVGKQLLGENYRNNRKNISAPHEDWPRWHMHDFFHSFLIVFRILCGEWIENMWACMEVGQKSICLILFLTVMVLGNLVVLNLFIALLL
human NaV 1.8, sequence (Q9Y5Y9 1148-1722 limits assumed): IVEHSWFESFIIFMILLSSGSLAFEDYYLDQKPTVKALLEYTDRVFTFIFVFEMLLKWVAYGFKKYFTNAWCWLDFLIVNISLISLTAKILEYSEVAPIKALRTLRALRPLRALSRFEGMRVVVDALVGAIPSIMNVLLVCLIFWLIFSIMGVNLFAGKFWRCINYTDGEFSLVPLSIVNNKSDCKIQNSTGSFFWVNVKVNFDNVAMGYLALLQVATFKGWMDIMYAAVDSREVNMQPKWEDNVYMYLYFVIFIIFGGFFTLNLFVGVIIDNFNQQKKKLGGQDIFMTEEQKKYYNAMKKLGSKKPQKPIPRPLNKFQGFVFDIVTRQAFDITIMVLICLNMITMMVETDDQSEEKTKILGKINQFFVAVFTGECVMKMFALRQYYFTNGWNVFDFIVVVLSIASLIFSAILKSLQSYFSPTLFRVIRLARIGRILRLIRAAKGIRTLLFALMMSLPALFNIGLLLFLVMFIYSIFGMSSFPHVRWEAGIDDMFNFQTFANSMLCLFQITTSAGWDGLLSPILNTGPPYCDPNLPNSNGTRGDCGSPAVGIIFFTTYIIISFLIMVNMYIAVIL

pIC50, ≤ 6.00:
COc1c([C@H]2[C@H](C(=O)NCC(C)(C)C(N)=O)O[C@@](C)(C(F)(F)F)[C@H]2C)ccc(F)c1F [Compound 282, (2R,3S,4S,5R)-N-(3-amino-2,2-dimethyl-3-oxopropyl)-3-(3,4-difluoro-2-methoxyphenyl)-4,5-dimethyl-5-(trifluoromethyl)tetrahydrofuran-2-carboxamide]
COc1c([C@H]2[C@H](C(=O)NCCc3cnn(C)c3)O[C@@](C)(C(F)(F)F)[C@H]2C)ccc(F)c1F [Compound 283, (2R,3S,4S,5R)-3-(3,4-difluoro-2-methoxyphenyl)-4,5-dimethyl-N-(2-(1-methyl-1H-pyrazol-4-yl)ethyl)-5-(trifluoromethyl)tetrahydrofuran-2-carboxamide]
COc1c([C@H]2[C@H](C(=O)NCC3COC(C)(C)C3)O[C@@](C)(C(F)(F)F)[C@H]2C)ccc(F)c1F (stereo partly drawn) [Compound 284, (2R,3S,4S,5R)-3-(3,4-difluoro-2-methoxyphenyl)-N-((5,5-dimethyltetrahydrofuran-3-yl)methyl)-4,5-dimethyl-5-(trifluoromethyl)tetrahydrofuran-2-carboxamide]
COc1c([C@H]2[C@H](C(=O)NCCc3c(C)n[nH]c3C)O[C@@](C)(C(F)(F)F)[C@H]2C)ccc(F)c1F [Compound 285, (2R,3S,4S,5R)-3-(3,4-difluoro-2-methoxyphenyl)-N-(2-(3,5-dimethyl-1H-pyrazol-4-yl)ethyl)-4,5-dimethyl-5-(trifluoromethyl)tetrahydrofuran-2-carboxamide]
COc1c([C@H]2[C@H](C(=O)NCc3cc(C(N)=O)co3)O[C@@](C)(C(F)(F)F)[C@H]2C)ccc(F)c1F [Compound 286, 5-(((2R,3S,4S,5R)-3-(3,4-difluoro-2-methoxyphenyl)-4,5-dimethyl-5-(trifluoromethyl)tetrahydrofuran-2-carboxamido)methyl)furan-3-carboxamide]
COc1c([C@H]2[C@H](C(=O)NCCc3c(C)noc3C)O[C@@](C)(C(F)(F)F)[C@H]2C)ccc(F)c1F [Compound 287, (2R,3S,4S,5R)-3-(3,4-difluoro-2-methoxyphenyl)-N-(2-(3,5-dimethylisoxazol-4-yl)ethyl)-4,5-dimethyl-5-(trifluoromethyl)tetrahydrofuran-2-carboxamide]
COCc1cc(CNC(=O)[C@@H]2O[C@@](C)(C(F)(F)F)[C@@H](C)[C@H]2c2ccc(F)c(F)c2OC)n[nH]1 [Compound 288, (2R,3S,4S,5R)-3-(3,4-difluoro-2-methoxyphenyl)-N-((5-(methoxymethyl)-1H-pyrazol-3-yl)methyl)-4,5-dimethyl-5-(trifluoromethyl)tetrahydrofuran-2-carboxamide]
COc1c([C@H]2[C@H](C(=O)NCc3nc(C(C)C)no3)O[C@@](C)(C(F)(F)F)[C@H]2C)ccc(F)c1F [Compound 289, (2R,3S,4S,5R)-3-(3,4-difluoro-2-methoxyphenyl)-N-((3-isopropyl-1,2,4-oxadiazol-5-yl)methyl)-4,5-dimethyl-5-(trifluoromethyl)tetrahydrofuran-2-carboxamide]
COc1c([C@H]2[C@H](C(=O)NCC3CN(C)C(=O)CO3)O[C@@](C)(C(F)(F)F)[C@H]2C)ccc(F)c1F (stereo partly drawn) [Compound 290, (2R,3S,4S,5R)-3-(3,4-difluoro-2-methoxyphenyl)-4,5-dimethyl-N-((4-methyl-5-oxomorpholin-2-yl)methyl)-5-(trifluoromethyl)tetrahydrofuran-2-carboxamide]
COc1c([C@H]2[C@H](C(=O)NC3(Cc4ccccc4)CC3)O[C@@](C)(C(F)(F)F)[C@H]2C)ccc(F)c1F [Compound 291, (2R,3S,4S,5R)-N-(1-benzylcyclopropyl)-3-(3,4-difluoro-2-methoxyphenyl)-4,5-dimethyl-5-(trifluoromethyl)tetrahydrofuran-2-carboxamide]
COc1c([C@H]2[C@H](C(=O)Nc3cc(C)nn3CCC#N)O[C@@](C)(C(F)(F)F)[C@H]2C)ccc(F)c1F [Compound 292, (2R,3S,4S,5R)-N-(1-(2-cyanoethyl)-3-methyl-1H-pyrazol-5-yl)-3-(3,4-difluoro-2-methoxyphenyl)-4,5-dimethyl-5-(trifluoromethyl)tetrahydrofuran-2-carboxamide]
COc1c([C@H]2[C@H](C(=O)NCC(C)N3CCN(C)CC3)O[C@@](C)(C(F)(F)F)[C@H]2C)ccc(F)c1F (stereo partly drawn) [Compound 293, (2R,3S,4S,5R)-3-(3,4-difluoro-2-methoxyphenyl)-4,5-dimethyl-N-(2-(4-methylpiperazin-1-yl)propyl)-5-(trifluoromethyl)tetrahydrofuran-2-carboxamide]
COc1c([C@H]2[C@H](C(=O)NCc3ccc4ncccc4c3)O[C@@](C)(C(F)(F)F)[C@H]2C)ccc(F)c1F [Compound 294, (2R,3S,4S,5R)-3-(3,4-difluoro-2-methoxyphenyl)-4,5-dimethyl-N-(quinolin-6-ylmethyl)-5-(trifluoromethyl)tetrahydrofuran-2-carboxamide]
COc1c([C@H]2[C@H](C(=O)NC(C)c3cnn(C)c3)O[C@@](C)(C(F)(F)F)[C@H]2C)ccc(F)c1F (stereo partly drawn) [Compound 296, (2R,3S,4S,5R)-3-(3,4-difluoro-2-methoxyphenyl)-4,5-dimethyl-N-(1-(1-methyl-1H-pyrazol-4-yl)ethyl)-5-(trifluoromethyl)tetrahydrofuran-2-carboxamide]
COc1c([C@H]2[C@H](C(=O)NC(C)C(=O)NC3CC3)O[C@@](C)(C(F)(F)F)[C@H]2C)ccc(F)c1F (stereo partly drawn) [Compound 297, (2R,3S,4S,5R)-N-(1-(cyclopropylamino)-1-oxopropan-2-yl)-3-(3,4-difluoro-2-methoxyphenyl)-4,5-dimethyl-5-(trifluoromethyl)tetrahydrofuran-2-carboxamide]
COc1c([C@H]2[C@H](C(=O)NC3CCN(C(C)=O)C3)O[C@@](C)(C(F)(F)F)[C@H]2C)ccc(F)c1F (stereo partly drawn) [Compound 298, (2R,3S,4S,5R)-N-(1-acetylpyrrolidin-3-yl)-3-(3,4-difluoro-2-methoxyphenyl)-4,5-dimethyl-5-(trifluoromethyl)tetrahydrofuran-2-carboxamide]
COc1c([C@H]2[C@H](C(=O)NC3CCCCNC3=O)O[C@@](C)(C(F)(F)F)[C@H]2C)ccc(F)c1F (stereo partly drawn) [Compound 299, (2R,3S,4S,5R)-3-(3,4-difluoro-2-methoxyphenyl)-4,5-dimethyl-N-(2-oxoazepan-3-yl)-5-(trifluoromethyl)tetrahydrofuran-2-carboxamide]
COc1c([C@H]2[C@H](C(=O)NCC3(C)CCOCC3)O[C@@](C)(C(F)(F)F)[C@H]2C)ccc(F)c1F [Compound 300, (2R,3S,4S,5R)-3-(3,4-difluoro-2-methoxyphenyl)-4,5-dimethyl-N-((4-methyltetrahydro-2H-pyran-4-yl)methyl)-5-(trifluoromethyl)tetrahydrofuran-2-carboxamide]
COc1c([C@H]2[C@H](C(=O)NCC(O)c3cnn(C)c3)O[C@@](C)(C(F)(F)F)[C@H]2C)ccc(F)c1F (stereo partly drawn) [Compound 301, (2R,3S,4S,5R)-3-(3,4-difluoro-2-methoxyphenyl)-N-(2-hydroxy-2-(1-methyl-1H-pyrazol-4-yl)ethyl)-4,5-dimethyl-5-(trifluoromethyl)tetrahydrofuran-2-carboxamide]
COc1c([C@H]2[C@H](C(=O)NCCN3CCNC(=O)C3)O[C@@](C)(C(F)(F)F)[C@H]2C)ccc(F)c1F [Compound 302, (2R,3S,4S,5R)-3-(3,4-difluoro-2-methoxyphenyl)-4,5-dimethyl-N-(2-(3-oxopiperazin-1-yl)ethyl)-5-(trifluoromethyl)tetrahydrofuran-2-carboxamide]
COc1c([C@H]2[C@H](C(=O)NC3CCN(C(N)=O)CC3)O[C@@](C)(C(F)(F)F)[C@H]2C)ccc(F)c1F [Compound 303, 4-((2R,3S,4S,5R)-3-(3,4-difluoro-2-methoxyphenyl)-4,5-dimethyl-5-(trifluoromethyl)tetrahydrofuran-2-carboxamido)piperidine-1-carboxamide]
COc1c([C@H]2[C@H](C(=O)NCC(=O)N3CCOCC3)O[C@@](C)(C(F)(F)F)[C@H]2C)ccc(F)c1F [Compound 304, (2R,3S,4S,5R)-3-(3,4-difluoro-2-methoxyphenyl)-4,5-dimethyl-N-(2-morpholino-2-oxoethyl)-5-(trifluoromethyl)tetrahydrofuran-2-carboxamide]
COc1c([C@H]2[C@H](C(=O)NCC3(c4ccccc4)CC3)O[C@@](C)(C(F)(F)F)[C@H]2C)ccc(F)c1F [Compound 305, (2R,3S,4S,5R)-3-(3,4-difluoro-2-methoxyphenyl)-4,5-dimethyl-N-((1-phenylcyclopropyl)methyl)-5-(trifluoromethyl)tetrahydrofuran-2-carboxamide]
COc1c([C@H]2[C@H](C(=O)NC3(c4ccccc4)COC3)O[C@@](C)(C(F)(F)F)[C@H]2C)ccc(F)c1F [Compound 306, (2R,3S,4S,5R)-3-(3,4-difluoro-2-methoxyphenyl)-4,5-dimethyl-N-(3-phenyloxetan-3-yl)-5-(trifluoromethyl)tetrahydrofuran-2-carboxamide]
COc1c([C@H]2[C@H](C(=O)NC3CN(S(C)(=O)=O)C3)O[C@@](C)(C(F)(F)F)[C@H]2C)ccc(F)c1F [Compound 307, (2R,3S,4S,5R)-3-(3,4-difluoro-2-methoxyphenyl)-4,5-dimethyl-N-(1-(methylsulfonyl)azetidin-3-yl)-5-(trifluoromethyl)tetrahydrofuran-2-carboxamide]
COc1c([C@H]2[C@H](C(=O)NC(C)c3ccc(C)c(F)c3)O[C@@](C)(C(F)(F)F)[C@H]2C)ccc(F)c1F (stereo partly drawn) [Compound 308, (2R,3S,4S,5R)-3-(3,4-difluoro-2-methoxyphenyl)-N-(1-(3-fluoro-4-methylphenyl)ethyl)-4,5-dimethyl-5-(trifluoromethyl)tetrahydrofuran-2-carboxamide]

Source: patent US20240368135A1 (VERTEX PHARMACEUTICALS INCORPORATED, priority 2021, published 2024)
